Where two headings read alike, the source gives them in different places.
Tested on: primary hepatocytes isolated from rats
Assay: Hepatocyte protective effect against substances deriving hepatocyte toxicity (WST-1 viability)
Assay type: cell-based
Conditions: for EC50: 24-48 h
Protocol: Various endogenous/exogenous attacks on the cells trigger the mechanisms of cell death which is broadly classified into two types, i.e. apoptosis or necrosis. Using these cell death mechanisms, in the present experimental example, primary hepatocytes isolated from rats were treated with drugs which were clinically shown to result in serious side-effects of hepatocyte toxicity or various chemicals which derive cell death, and the compounds synthesized in the Examples were estimated for their hepatocyte protective effects, after 24-48 h. The substances used to derive hepatocyte death include CCl4, ActD, H2O2, doxorubicin, anti-Fas Ab/Actinomycin D, acetaminophen, EtOH, CdCl2, palmitate, stearate, cyclophosphamide, terfenadine, diclofenac, simvastatin, and adefovir. Primary hepatocytes were isolated using the method of Seglen PO (Experimental Cell Research 74 (1972) pp 450-454). Briefly, hepatocytes were isolated according to the two-step collagenase perfusion method, and dead cells were removed by low speed (500 rpm) centrifugation for 10 min using percoll gradient (Kreamer B L etc, In Vitro Cellular & Developmental Biology 22 (1986) pp 201-211). During this step, the viability of cells was maintained 90% or above. The cells were suspended in HepatoZYME media (Gibco BRL), and the number of cells was counted. 1.5×10^4 cells in 100 μl were placed into the collagen-coated 96-well plate (BD biocoat), and adhered on the bottom for 3-4 h.
In order to assess the hepatocyte protective effect, above adhered cells were pretreated with the Example compounds for 30 min. At this time, the concentration of the Example compounds were serially diluted by 2-fold or 3-fold over 5 steps starting from 30 uM, 10 uM or 1 uM depending on the experiments, and the final concentration of DMSO was adjusted to 0.2%. 30 min after the treatment by compounds, cells were treated by the substances deriving hepatocyte death or hepatotoxic drugs at the concentrations indicated in Table 1. After 24-48 h, the viability of cells was determined to estimate the hepatocyte protective effects. The viability of cells was determined using WST-1 (MK-400, […]) method by the absorbance at 440 nm. Hepatocyte protective effects of the Example compounds were represented by “EC50,” which was calculated from measured values. “EC50” herein means the concentration of the compound at which 50% of maximum protective effect is observed in the experiment.

[1] = Rattus norvegicus, Hepatocyte, doxorubicin, read-out: EC50, cell protective effects against doxorubicin in hepatocytes
[2] = doxorubicin, rat primary hepatocytes, read-out: EC50, cell protective effects against doxorubicin in hepatocytes

SMILES	EC50 [1]	other results
CN(C)C1CCC(Nc2cc(Cl)cc3cc(-c4ccccc4)[nH]c23)CC1 (centres unmarked) [Example 100, N-(5-chloro-2-phenyl-1H-indol-7-yl)-N′,N′-dimethyl-cyclohexane-1,4-diamine]	80 nM	
COc1ccc(-c2n[nH]c3c(NCC4CCOCC4)cccc23)cc1 [Example 159, [3-(4-Methoxyphenyl)-1H-indazol-7-yl)-(tetrahydropyran-4-ylmethyl)-amine]	110 nM	
O=C(O)C[C@@H]1CSC(c2cc(NCC3CCOCC3)c3[nH]c(-c4ccccc4)cc3c2)=N1 [Example 122, 2-[(R)-2-(2-phenyl-7-(tetrahydropyran-4-yl)methylamino-1H-indol-5-yl)-4,5-dihydro-thiazol-4-yl]-acetic acid]	200 nM	
COc1ccc(-c2n[nH]c3c(NC4CCCC4)cccc23)cc1 [Example 157, Cyclopentyl-[3-(4-methoxyphenyl)-1H-indazol-7-yl)-amine]	900 nM	
NC(=O)C1CCC(Nc2cc(Cl)cc3cc(-c4ccccc4)[nH]c23)CC1 (centres unmarked) [Example 104, 4-(5-Chloro-2-phenyl-1H-indol-7-yl)amino-cyclohexane-1-carboxylic acid amide]	80 nM	
Cc1cc(NC2CCOCC2)c2[nH]c(-c3ccccc3)cc2c1 [Example 41, (Tetrahydropyran-4-yl)-(5-methyl-2-phenyl-1H-indol-7-yl)-amine]	60 nM	EC50 (Rattus norvegicus, Hepatocyte, Actinomycin D 100 ng/mL, read-out: EC50, protective effect against the substances deriving hepatotoxicity): 170 nM; EC50 (Rattus norvegicus, Hepatocyte, Anti-Fas Ab 1 ug/mL / Actinomycin D 5 ng/mL, read-out: EC50, protective effect against the substances deriving hepatotoxicity): < 600 nM; EC50 (Rattus norvegicus, Hepatocyte, CCl4 10 mM, read-out: EC50, protective effect against the substances deriving hepatotoxicity): 800 nM; EC50 (Rattus norvegicus, Hepatocyte, CdCl2 1 uM, read-out: EC50, protective effect against the substances deriving hepatotoxicity): 1900 nM; EC50 (Rattus norvegicus, Hepatocyte, Cyclophosphamide 3 mM, read-out: EC50, protective effect against the substances deriving hepatotoxicity): < 200 nM; EC50 (Rattus norvegicus, Hepatocyte, Doxorubicin 5 uM, read-out: EC50, protective effect against the substances deriving hepatotoxicity): 60 nM; EC50 (Rattus norvegicus, Hepatocyte, EtOH 2.5%, read-out: EC50, protective effect against the substances deriving hepatotoxicity): 9000 nM; EC50 (Rattus norvegicus, Hepatocyte, H2O2 10 mM, read-out: EC50, protective effect against the substances deriving hepatotoxicity): 800 nM; EC50 (Rattus norvegicus, Hepatocyte, Palmitic acid 700 uM, read-out: EC50, protective effect against the substances deriving hepatotoxicity): < 600 nM; EC50 (Rattus norvegicus, Hepatocyte, Stearic acid 700 uM, read-out: EC50, protective effect against the substances deriving hepatotoxicity): < 600 nM; viability at 3-100 uM (Tacrine 0.5 mM, compound at 3-100 uM, rat primary hepatocytes): 50%
CC(=O)Nc1ccc(-c2cc3cc(N4CCS(=O)(=O)CC4)cc(NCC4CCOCC4)c3[nH]2)cc1 [Example 87, (Tetrahydropyran-4-yl)methyl-{5-(1,1-dioxo-thiomorpholin-4-yl)-2-[4-(acetyl)aminophenyl]-1H-indol-7-yl}-amine]	600 nM	
O=C(O)Cc1cccc(-c2cc3cc(Cl)cc(NC4CCOCC4)c3[nH]2)c1 [Example 129, 2-{3-[5-Chloro-7-(tetrahydropyran-4-yl)amino-1H-indol-2-yl]-phenyl}-acetic acid]	1160 nM	
COc1ccc(-c2cc3cc(CN4CCS(=O)(=O)CC4)cc(NC4CCOCC4)c3[nH]2)cc1 [Example 39, (Tetrahydropyran-4-yl)-[2-(4-methoxy)phenyl-5-(1,1-dioxo-thiomorpholin-4-yl)methyl-1H-indol-7-yl]amine]		EC50 [2]: 330 nM
O=C(O)Cc1cccc(-c2cc3cc(Cl)cc(NC4CCCC4)c3[nH]2)c1 [Example 128, 2-[3-(5-Chloro-7-cyclopentylamino-1-H-indol-2-yl)-phenyl]-acetic acid]		EC50 [2]: 170 nM
CCOC(=O)c1cc(NC2CCCC2)c2[nH]c(-c3ccccc3)cc2c1 [Example 28, 7-(Cyclopentyl)amino-2-phenyl-1H-indole-5-carboxylic acid ethyl ester]	170 nM	
c1ccc(-c2cc3cccc(NC4CCOCC4)c3[nH]2)nc1 [Example 8, (Tetrahydropyran-4-yl)-[2-(pyridin-2-yl)-1H-indol-7-yl]-amine]	2500 nM	
O=C(C1CCCO1)N1CCC(Nc2cc(CN3CCS(=O)(=O)CC3)cc3cc(-c4ccccc4)[nH]c23)CC1 (centres unmarked) [Example 98, {4-[5-(1,1-Dioxo-thiomorpholin-4-yl)methyl-2-phenyl-1H-indol-7-yl]amino-piperidin-1-yl}-(tetrahydrofuran-2-yl)-methanone]	110 nM	
O=C(O)CNc1cc(Oc2ccccc2)cc2cc(-c3ccccc3)[nH]c12 [Example 109, 2-[(5-Phenoxy-2-phenyl-1H-indol-7-yl)amino]-acetic acid]	257 nM	
O=C(Cc1cc(NC2CCCC2)c2[nH]c(-c3ccccc3)cc2c1)N1CCCC1 [Example 119, 2-(7-Cyclopentylamino-2-phenyl-1H-indol-5-yl]-1-pyrrolidin-1-yl-ethanone]	140 nM	
Clc1cc(NCC2CCOCC2)c2[nH]c(-c3ccccc3)cc2c1 [Example 50, (Tetrahydropyran-4-ylmethyl)-(5-chloro-2-phenyl-1H-indol-7-yl)-amine]	43 nM	
Clc1cc(NC2CCCCC2)c2[nH]c(-c3ccccc3)cc2c1 [Example 47, Cyclohexyl-(5-chloro-2-phenyl-1H-indol-7-yl)-amine]	50 nM	

SMILES	EC50 [1]	other results
O=C(O)Cc1cccc(-c2cc3cc(Cl)cc(NCC4CCOCC4)c3[nH]2)c1 [Example 127, 2-{3-[5-Chloro-7-(tetrahydropyran-4-ylmethyl)amino-1H-indol-2-yl]-phenyl}-acetic acid]	590 nM	
O=S1(=O)CCN(Cc2cc(NC3CCOCC3)c3[nH]c(-c4cccc(F)c4)cc3c2)CC1 [Example 75, (Tetrahydropyran-4-yl)-(5-(1,1-dioxo-thiomorpholin-4-yl)methyl-2-(3-fluorophenyl)-1H-indol-7-yl)-amine]	120 nM	
Cc1ccc(Nc2cc(Cl)cc3cc(-c4ccccc4)[nH]c23)nc1 [Example 114, (5-Chloro-2-phenyl-1H-indol-7-yl)-5-methyl-pyridin-2-yl-amine]	370 nM	
O=C(O)C1CCC(Nc2cc(Cl)cc3cc(-c4ccccc4)[nH]c23)CC1 (centres unmarked) [Example 102, 4-(5-Chloro-2-phenyl-1H-indol-7-yl)amino-cyclohexane-1-carboxylic acid]	300 nM	
CN1CCC(CNc2cc(F)cc3cc(-c4ccccc4)[nH]c23)CC1 [Example 59, (1-Methyl-piperidinemethyl-4-yl)-[5-fluoro-2-phenyl-1H-indol-7-yl]amine]		EC50 [2]: 200 nM
O=C(O)Cc1ccc(-c2cc3cc(Cl)cc(NC4CCCC4)c3[nH]2)cc1 [Example 140, 2-[4-(5-Chloro-7-cyclopentylamino-1H-indol-2-yl)phenyl]-acetic acid]	130 nM	
CC(=O)N1CCC(Nc2cc(C)cc3cc(-c4ccccc4)[nH]c23)CC1 [Example 45, 1-[-4-[(5-Methyl-2-phenyl-1H-indol-7-yl)amino]piperidin-1-yl]ethanone]	210 nM	
Cc1cc(NC2CCCC2)c2[nH]c(-c3ccccc3)c(C)c2c1 [Example 40, Cyclopentyl-[3,5-dimethyl-2-phenyl-1H-indol-7-yl]-amine]	200 nM	
Cc1cc(N(C)C2CCCC2)c2[nH]c(-c3ccccn3)cc2c1 [Example 27, Cyclopentyl-methyl-[5-methyl-2-(pyridin-2-yl)-1H-indol-7-yl]-amine]	2400 nM	
O=C1CN(Cc2c(-c3ccccc3)[nH]c3c(NC4CCOCC4)cc(Cl)cc23)CCN1 [Example 69, (Tetrahydropyran-4-yl)-(5-chloro-3-(2-oxo-piperazin-4-yl)methyl-2-phenyl-1H-indol-7-yl)-amine]	355 nM	
CN1CCC(Nc2cc(Cl)cc3cc(-c4ccccc4)[nH]c23)CC1 [Example 52, (1-Methylpiperidin-4-yl)-(5-chloro-2-phenyl-1H-indol-7-yl)-amine]	140 nM	
c1ccc(-c2cc3cccc(NC4CCCC4)c3[nH]2)nc1 [Example 7, Cyclopentyl-[2-(pyridin-2-yl)-1H-indol-7-yl]amine]	500 nM	
CCOC(=O)Cc1cc(NC2CCCC2)c2[nH]c(-c3ccccc3)cc2c1 [Example 31, 2-[7-(Cyclopentyl)amino-2-phenyl-1H-indol-5-yl]-acetic acid ethyl ester]	160 nM	
Clc1cc(NC2CCOCC2)c2[nH]cc(-c3ccccc3)c2c1 [Example 79, (Tetrahydropyran-4-yl)-(5-chloro-3-phenyl-1H-indol-7-yl)-amine]	140 nM	
COc1ccc(-c2n[nH]c3c(NC4CCOCC4)cccc23)cc1 [Example 158]		EC50 [2]: 2770 nM
Clc1cc(NC2CCN(Cc3ccccc3)C2)c2[nH]c(-c3ccccc3)cc2c1 (centres unmarked) [Example 51, (1-Benzylpyrrolidin-3-yl)-(5-chloro-2-phenyl-1H-indol-7-yl)-amine]	230 nM	
